Counter-ions that a name gives are not always drawn.
SMILES | melting point [°C]
Cn1c(=O)c2ccc(OCCO)cc2n2nc(-c3ccnc(C(F)(F)F)c3)cc12 [Example 83, 8-(2-Hydroxy-ethoxy)-4-methyl-2-(2-trifluoromethyl-pyridin-4-yl)-4H-pyrazolo[1,5-a]quinazolin-5-one] | 128 to 134
Cl.Cn1c(=O)c2ccccc2n2nc(-c3ccnc(C4CCCCC4)c3)cc12 | > 250
Cn1c(=O)c2cc(NC3CCC3)ccc2n2nc(-c3ccnc(C(F)(F)F)c3)cc12 [Example 46, 7-Cyclobutylamino-4-methyl-2-(2-trifluoromethyl-pyridin-4-yl)-4H-pyrazolo[1,5-a]quinazolin-5-one] | 220 to 225
Cn1c(=O)c2cc(F)c(N3CCC34CCC(CO)CC4)cc2n2nc(-c3ccnc(C(F)(F)F)c3)cc12 (centres unmarked) [Example 123, 7-Fluoro-8-(7-hydroxymethyl-1-aza-spiro[3.5]non-1-yl)-4-methyl-2-(2-trifluoromethyl-pyridin-4-yl)-4H-pyrazolo[1,5-a]quinazolin-5-one] | > 250
Cn1c(=O)c2ccc(F)cc2n2nc(-c3ccnc(C4CC4)c3)cc12 [Example 112, 2-(2-Cyclopropyl-pyridin-4-yl)-8-fluoro-4-methyl-4H-pyrazolo[1,5-a]quinazolin-5-one] | 230 to 235
Cl.Cn1c(=O)c2ccc(N3CCNCC3)cc2n2nc(-c3ccnc(C(F)(F)F)c3)cc12 | > 250
Cn1c(=O)c2ccc(N3CCCC3)cc2n2nc(-c3ccnc(C(F)(F)F)c3)cc12 [Example 60, 4-Methyl-8-pyrrolidin-1-yl-2-(2-trifluoromethyl-pyridin-4-yl)-4H-pyrazolo[1,5-a]quinazolin-5-one] | > 250
COc1ccc2c(c1)c(=O)n(C)c1cc(-c3ccnc(C4CC4)c3)nn21 (as salt: HCl) [Example 100, 2-(2-Cyclopropyl-pyridin-4-yl)-7-methoxy-4-methyl-4H-pyrazolo[1,5-a]quinazolin-5-one] | 230 to 240
COc1cccc2c(=O)n(C)c3cc(-c4ccnc(C(F)(F)F)c4)nn3c12 [Example 86, 9-Methoxy-4-methyl-2-(2-trifluoromethyl-pyridin-4-yl)-4H-pyrazolo[1,5-a]quinazolin-5-one] | > 250
Cn1c(=O)c2ccc(C(=O)O)cc2n2nc(-c3ccnc(C(F)(F)F)c3)cc12 [Example 76, 4-Methyl-5-oxo-2-(2-trifluoromethyl-pyridin-4-yl)-4,5-dihydro-pyrazolo[1,5-a]quinazoline-8-carboxylic Acid] | > 250
Cc1ccc2c(=O)n(C)c3cc(-c4ccnc(C(F)(F)F)c4)nn3c2c1 [Example 72, 4,8-Dimethyl-2-(2-trifluoromethyl-pyridin-4-yl)-4H-pyrazolo[1,5-a]quinazolin-5-one] | > 250
Cn1c(=O)c2ccccc2n2nc(-c3ccncc3)cc12 (as salt: HCl) [Example 104, 4-Methyl-2-pyridin-4-yl-4H-pyrazolo[1,5-a]quinazolin-5-one] | > 250
Cn1c(=O)c2ccc(N3CCOCC3)cc2n2nc(-c3ccnc(C(F)(F)F)c3)cc12 [Example 59, 4-Methyl-8-morpholin-4-yl-2-(2-trifluoromethyl-pyridin-4-yl)-4H-pyrazolo[1,5-a]quinazolin-5-one] | > 250
Cn1c(=O)c2ccc(N3CCC(C)(O)CC3)cc2n2nc(-c3ccnc(C(F)(F)F)c3)cc12 [Example 71, 8-(4-Hydroxy-4-methyl-piperidin-1-yl)-4-methyl-2-(2-trifluoromethyl-pyridin-4-yl)-4H-pyrazolo[1,5-a]quinazolin-5-one] | > 250
